Measurements taken from ChEMBL document CHEMBL3045324, “5-phenyl-1-benzofuran-2-yl derivatives: synthesis, antimicrobial, and antioxidant activity” (2013).
Converted amounts (≈) assume the structure as drawn. The source made the active and inactive calls. No cut-off for these calls is given here.

Key:
Staphylococcus aureus [1] = assay: Antibacterial activity against Staphylococcus aureus NCTC 10788 assessed as growth inhibition at 1 to 50 mg/mL after 24 hr; format: functional, organism-based
Candida albicans [2] = assay: Antifungal activity against Candida albicans NCPF 3179 assessed as growth inhibition at 1 to 50 mg/mL after 3 days; format: functional, organism-based
Escherichia coli [3] = assay: Antibacterial activity against Escherichia coli NCTC 12923 assessed as growth inhibition at 1 to 50 mg/mL after 24 hr; format: functional, organism-based
[4] = tested on: Radical scavenging activity; assay: Antioxidant activity assessed as DPPH radical scavenging activity at 1 mg/mL after 15 min UV-vis spectrophotometric analysis relative to control; format: functional
Bacillus subtilis [5] = assay: Antibacterial activity against Bacillus subtilis NCTC 10400 assessed as growth inhibition at 1 to 50 mg/mL after 24 hr; format: functional, organism-based
Staphylococcus aureus [6] = assay: Antibacterial activity against Staphylococcus aureus NCTC 10788 assessed as growth inhibition at 50 mg/mL after 24 hr; format: functional; details: for zone of inhibition at 50000 µg/mL: NCTC 10788, 24 h, read-out: IZ
Bacillus subtilis [7] = assay: Antibacterial activity against Bacillus subtilis NCTC 10400 assessed as growth inhibition at 50 mg/mL after 24 hr; format: functional; details: for zone of inhibition at 50000 µg/mL: NCTC 10400, 24 h, read-out: IZ
Escherichia coli [8] = assay: Antibacterial activity against Escherichia coli NCTC 12923 assessed as growth inhibition at 50 mg/mL after 24 hr; format: functional; details: for zone of inhibition at 50000 µg/mL: NCTC 12923, 24 h, read-out: IZ
Bacillus subtilis [9] = assay: Antibacterial activity against Bacillus subtilis NCTC 10400 assessed as growth inhibition after 24 hr; format: functional; details: NCTC 10400, 24 h
Candida albicans [10] = assay: Antifungal activity against Candida albicans NCPF 3179 assessed as growth inhibition at 50 mg/mL after 3 days; format: functional; details: NCPF 3179, 72 h, read-out: IZ
Staphylococcus aureus [11] = assay: Antibacterial activity against Staphylococcus aureus NCTC 10788 assessed as growth inhibition after 24 hr; format: functional; details: NCTC 10788, 24 h

| Compound | growth inhibition (GI) (Staphylococcus aureus [1]) | growth inhibition (GI) (Candida albicans [2]) | growth inhibition (GI) (Escherichia coli [3]) | Activity [4] [%] | growth inhibition (GI) (Bacillus subtilis [5]) | zone of inhibition at 50000 µg/mL (Staphylococcus aureus [6]) [mm] | zone of inhibition at 50000 µg/mL (Bacillus subtilis [7]) [mm] | zone of inhibition at 50000 µg/mL (Escherichia coli [8]) [mm] | MIC (Bacillus subtilis [9]) [µg/mL] | zone of inhibition at 50000 µg/mL (Candida albicans [10]) [mm] | MIC (Staphylococcus aureus [11]) [µg/mL] | inhibition zone (IZ) (Staphylococcus aureus [6]) [mm] | inhibition zone (IZ) (Bacillus subtilis [7]) [mm] | inhibition zone (IZ) (Escherichia coli [8]) [mm] |
| --- | --- | --- | --- | --- | --- | --- | --- | --- | --- | --- | --- | --- | --- | --- |
| O=C(c1ccc(-c2ccccc2F)cc1)c1cc2cc(-c3ccccc3F)ccc2o1 | inactive | inactive | inactive | 18.7 | inactive |  |  |  |  |  |  |  |  |  |
| CCOc1ccccc1-c1ccc(C(O)(CC)c2cc3cc(-c4ccccc4OCC)ccc3o2)cc1 (stereo not given) | inactive | inactive | inactive | 5.5 | inactive |  |  |  |  |  |  |  |  |  |
| CCc1ccc(-c2ccc(C(O)(c3cc4cc(-c5ccc(CC)cc5)ccc4o3)C(C)C)cc2)cc1 (stereo not given) | inactive | inactive | inactive | 34.7 | inactive |  |  |  |  |  |  |  |  |  |
| CC(C)C(O)(c1ccc(-c2ccccc2)cc1)c1cc2cc(-c3ccccc3)ccc2o1 (stereo not given) | inactive | inactive | inactive | 52.3 | inactive |  |  |  |  |  |  |  |  |  |
| CCOc1ccccc1-c1ccc(C(O)(c2cc3cc(-c4ccccc4OCC)ccc3o2)C(C)(C)C)cc1 (stereo not given) | inactive | inactive | inactive | 21.2 | inactive |  |  |  |  |  |  |  |  |  |
| CCc1ccc(-c2ccc(C(O)(CC)c3cc4cc(-c5ccc(CC)cc5)ccc4o3)cc2)cc1 (stereo not given) | inactive | inactive | inactive | 55.2 | inactive |  |  |  |  |  |  |  |  |  |
| CC(C)(C)C(O)(c1ccc(-c2ccccc2)cc1)c1cc2cc(-c3ccccc3)ccc2o1 (stereo not given) | inactive | inactive | inactive | 18.8 | inactive |  |  |  |  |  |  |  |  |  |
| CCC(O)(c1ccc(-c2ccccc2)cc1)c1cc2cc(-c3ccccc3)ccc2o1 (stereo not given) | inactive | inactive | inactive | 12.9 | inactive |  |  |  |  |  |  |  |  |  |
| CCOc1ccccc1-c1ccc(C(O)(Cc2ccccc2)c2cc3cc(-c4ccccc4OCC)ccc3o2)cc1 (stereo not given) | inactive | inactive | inactive | 16.4 | inactive |  |  |  |  |  |  |  |  |  |
| OC(c1ccc(-c2ccccc2F)cc1)c1cc2cc(-c3ccccc3F)ccc2o1 (stereo not given) | inactive | inactive | inactive | 21.3 | inactive | 0 | 6 | 0 | 50 (≈ 121 µM) | 0 |  |  |  |  |
| CC(=O)c1ccccc1-c1ccc(C(=O)c2cc3cc(-c4ccccc4C(C)=O)ccc3o2)cc1 |  |  | inactive | 19 |  | 8 | 10 | 0 | 100 (≈ 218 µM) | 0 | 100 (≈ 218 µM) |  |  |  |
| CCc1ccc(-c2ccc(C(O)(Cc3ccccc3)c3cc4cc(-c5ccc(CC)cc5)ccc4o3)cc2)cc1 (stereo not given) | inactive | inactive | inactive | 60.3 | inactive |  |  |  |  |  |  |  |  |  |
| NYSTATIN |  |  |  |  |  |  |  |  |  |  |  | 0 | 0 | 0 |
| O=[N+]([O-])c1cccc(-c2ccc(C(O)c3cc4cc(-c5cccc([N+](=O)[O-])c5)ccc4o3)cc2)c1 (stereo not given) |  |  | inactive | 19.9 |  | 6 | 6 | 0 | 500 (≈ 1070 µM) | 0 | 500 (≈ 1070 µM) |  |  |  |
| CCc1ccc(-c2ccc(C(=O)c3cc4cc(-c5ccc(CC)cc5)ccc4o3)cc2)cc1 |  |  | inactive | 17.3 |  |  |  |  |  |  |  |  |  |  |
| CS(=O)(=O)c1cccc(-c2ccc(C(O)c3cc4cc(-c5cccc(S(C)(=O)=O)c5)ccc4o3)cc2)c1 (stereo not given) |  |  | inactive | 39.8 |  |  |  |  |  |  |  |  |  |  |
| CCOc1ccccc1-c1ccc(C(O)c2cc3cc(-c4ccccc4OCC)ccc3o2)cc1 (stereo not given) | inactive | inactive | inactive | 19.3 | inactive |  |  |  |  |  |  |  |  |  |
| CCOc1ccccc1-c1ccc(C(O)(c2cc3cc(-c4ccccc4OCC)ccc3o2)C(C)C)cc1 (stereo not given) | inactive | inactive | inactive | 11.4 | inactive |  |  |  |  |  |  |  |  |  |
| O=C(c1ccc(-c2cccc([N+](=O)[O-])c2)cc1)c1cc2cc(-c3cccc([N+](=O)[O-])c3)ccc2o1 |  |  | inactive | 19.5 |  | 0 | 7 | 0 | 50 (≈ 108 µM) | 0 |  |  |  |  |
| CC1(C)S[C@@H]2[C@H](NC(=O)[C@H](N)c3ccccc3)C(=O)N2[C@H]1C(=O)O [AMPICILLIN] |  |  |  |  |  | 16 | 15 | 20 |  | 0 |  |  |  |  |
| OC(Cc1ccccc1)(c1ccc(-c2ccccc2)cc1)c1cc2cc(-c3ccccc3)ccc2o1 (stereo not given) | inactive | inactive | inactive | 30.5 | inactive |  |  |  |  |  |  |  |  |  |
| CCOc1ccccc1-c1ccc(C(=O)c2cc3cc(-c4ccccc4OCC)ccc3o2)cc1 | inactive | inactive | inactive | 16.1 | inactive |  |  |  |  |  |  |  |  |  |
| N#Cc1ccc(Cl)c(-c2ccc(C(=O)c3cc4cc(-c5cc(C#N)ccc5Cl)ccc4o3)cc2)c1 | inactive | inactive | inactive | 15.8 | inactive |  |  |  |  |  |  |  |  |  |
| CCc1ccc(-c2ccc(C(O)(c3cc4cc(-c5ccc(CC)cc5)ccc4o3)C(C)(C)C)cc2)cc1 (stereo not given) | inactive | inactive | inactive | 24.2 | inactive |  |  |  |  |  |  |  |  |  |
| OC(c1ccc(-c2ccccc2)cc1)c1cc2cc(-c3ccccc3)ccc2o1 (stereo not given) | inactive | inactive | inactive | 79.5 | inactive |  |  |  |  |  |  |  |  |  |
| CCc1ccc(-c2ccc(C(O)c3cc4cc(-c5ccc(CC)cc5)ccc4o3)cc2)cc1 (stereo not given) | inactive | inactive | inactive | 55.7 | inactive |  |  |  |  |  |  |  |  |  |
| Cc1cc(C(C)(C)C)c(O)c(C(C)(C)C)c1 |  |  |  | 90.4 |  |  |  |  |  |  |  |  |  |  |
